From patent US9295673B2, “Combination of mTOR inhibitors and P13-kinase inhibitors, and uses thereof” (Intellikine LLC, priority 2011, dated 2016) come the findings set out here.

The structures appear in SMILES notation. Read-outs that look alike come from different tables or passages of the source.

The target of one test is T1, mTOR (Homo sapiens, UniProt P42345).
T1 construct: purchased Invitrogen
Put plainly: mTOR kinase inhibition assay (radiometric or LanthaScreen TR-FRET). The class given is biochemical. The note with it: read-out: mTORC IC50. On the technique in general: In TR-FRET formats the signal depends on donor and acceptor labels being close together.

In another test the target is PI3K α (Homo sapiens, UniProt P42336). Put plainly: PI 3-Kinase (human) HTRF assay, PI3K α. The note with it: read-out: PI3K α IC50.
The target in another test is PI3K β (Homo sapiens, UniProt P42338). Put plainly: PI 3-Kinase (human) HTRF assay, PI3K β. Particulars: read-out: PI3K β IC50.
In another test the target is PI3K γ (Homo sapiens, UniProt P48736). Put plainly: PI 3-Kinase (human) HTRF assay, PI3K γ. The note with it: read-out: PI3K γ IC50.
Another test addresses PI3K δ (Homo sapiens, UniProt O00329). Nature of the test: PI 3-Kinase (human) HTRF assay, PI3K δ. Particulars: read-out: PI3K δ IC50.
Another test relates to PC3. Put plainly: PC3 proliferation (Alamar Blue). Format: cell-based. The note with it: Homo sapiens, PC-3; PC3 cells. In general terms: Resazurin is reduced to fluorescent resorufin, in cell work by metabolically active cells.

What is called IC50 is the point on the concentration scale where inhibition reaches its midpoint.

PI3K α, sequence (P42336 whole entry): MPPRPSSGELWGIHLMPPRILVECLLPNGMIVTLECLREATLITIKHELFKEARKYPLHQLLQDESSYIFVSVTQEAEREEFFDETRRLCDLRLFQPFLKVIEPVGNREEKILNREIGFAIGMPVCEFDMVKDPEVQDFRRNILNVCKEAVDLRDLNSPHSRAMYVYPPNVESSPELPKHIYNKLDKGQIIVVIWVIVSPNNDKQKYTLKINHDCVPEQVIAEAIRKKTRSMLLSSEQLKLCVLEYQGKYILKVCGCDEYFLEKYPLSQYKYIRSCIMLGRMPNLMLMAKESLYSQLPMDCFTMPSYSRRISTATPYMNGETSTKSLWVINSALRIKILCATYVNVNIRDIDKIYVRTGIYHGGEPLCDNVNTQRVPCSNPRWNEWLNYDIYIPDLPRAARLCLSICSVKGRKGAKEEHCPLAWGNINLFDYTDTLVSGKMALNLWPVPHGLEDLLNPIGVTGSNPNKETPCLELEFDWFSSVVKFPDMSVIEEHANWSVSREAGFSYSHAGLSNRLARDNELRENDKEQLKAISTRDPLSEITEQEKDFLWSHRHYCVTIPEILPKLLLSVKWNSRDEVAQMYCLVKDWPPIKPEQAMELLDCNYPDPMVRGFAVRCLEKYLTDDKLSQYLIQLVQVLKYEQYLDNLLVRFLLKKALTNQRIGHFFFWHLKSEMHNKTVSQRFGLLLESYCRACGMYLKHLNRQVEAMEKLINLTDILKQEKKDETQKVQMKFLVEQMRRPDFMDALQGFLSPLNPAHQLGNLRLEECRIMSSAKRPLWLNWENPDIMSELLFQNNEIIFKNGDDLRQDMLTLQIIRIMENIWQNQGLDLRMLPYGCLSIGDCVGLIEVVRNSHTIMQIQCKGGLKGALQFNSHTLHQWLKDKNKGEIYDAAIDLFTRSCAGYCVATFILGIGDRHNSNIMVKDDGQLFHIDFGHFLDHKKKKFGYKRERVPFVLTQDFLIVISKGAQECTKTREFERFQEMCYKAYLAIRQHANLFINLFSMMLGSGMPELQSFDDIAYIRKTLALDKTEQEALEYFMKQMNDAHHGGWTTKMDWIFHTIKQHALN
PI3K α, sequence (P27986 whole entry partner): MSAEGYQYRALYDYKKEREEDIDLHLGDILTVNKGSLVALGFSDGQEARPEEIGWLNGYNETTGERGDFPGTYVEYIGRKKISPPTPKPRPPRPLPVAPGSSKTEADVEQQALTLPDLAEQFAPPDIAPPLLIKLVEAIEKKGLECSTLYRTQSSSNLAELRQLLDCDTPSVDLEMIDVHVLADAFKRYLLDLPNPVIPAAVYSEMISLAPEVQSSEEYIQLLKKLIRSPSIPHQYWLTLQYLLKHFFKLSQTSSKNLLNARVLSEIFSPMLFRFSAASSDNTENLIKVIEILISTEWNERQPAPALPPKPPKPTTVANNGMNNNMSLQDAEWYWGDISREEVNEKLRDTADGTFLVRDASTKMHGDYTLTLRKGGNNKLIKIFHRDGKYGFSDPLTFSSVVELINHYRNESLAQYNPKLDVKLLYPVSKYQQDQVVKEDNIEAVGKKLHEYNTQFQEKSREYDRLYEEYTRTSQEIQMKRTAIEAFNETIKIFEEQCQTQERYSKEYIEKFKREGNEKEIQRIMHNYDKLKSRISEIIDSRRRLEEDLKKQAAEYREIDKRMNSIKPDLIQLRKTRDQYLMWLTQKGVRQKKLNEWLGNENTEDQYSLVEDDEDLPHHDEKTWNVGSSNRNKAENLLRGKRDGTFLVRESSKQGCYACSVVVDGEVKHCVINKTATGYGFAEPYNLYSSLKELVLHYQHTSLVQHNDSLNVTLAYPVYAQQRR
T1 sequence (P42345 1360-2549 limits assumed): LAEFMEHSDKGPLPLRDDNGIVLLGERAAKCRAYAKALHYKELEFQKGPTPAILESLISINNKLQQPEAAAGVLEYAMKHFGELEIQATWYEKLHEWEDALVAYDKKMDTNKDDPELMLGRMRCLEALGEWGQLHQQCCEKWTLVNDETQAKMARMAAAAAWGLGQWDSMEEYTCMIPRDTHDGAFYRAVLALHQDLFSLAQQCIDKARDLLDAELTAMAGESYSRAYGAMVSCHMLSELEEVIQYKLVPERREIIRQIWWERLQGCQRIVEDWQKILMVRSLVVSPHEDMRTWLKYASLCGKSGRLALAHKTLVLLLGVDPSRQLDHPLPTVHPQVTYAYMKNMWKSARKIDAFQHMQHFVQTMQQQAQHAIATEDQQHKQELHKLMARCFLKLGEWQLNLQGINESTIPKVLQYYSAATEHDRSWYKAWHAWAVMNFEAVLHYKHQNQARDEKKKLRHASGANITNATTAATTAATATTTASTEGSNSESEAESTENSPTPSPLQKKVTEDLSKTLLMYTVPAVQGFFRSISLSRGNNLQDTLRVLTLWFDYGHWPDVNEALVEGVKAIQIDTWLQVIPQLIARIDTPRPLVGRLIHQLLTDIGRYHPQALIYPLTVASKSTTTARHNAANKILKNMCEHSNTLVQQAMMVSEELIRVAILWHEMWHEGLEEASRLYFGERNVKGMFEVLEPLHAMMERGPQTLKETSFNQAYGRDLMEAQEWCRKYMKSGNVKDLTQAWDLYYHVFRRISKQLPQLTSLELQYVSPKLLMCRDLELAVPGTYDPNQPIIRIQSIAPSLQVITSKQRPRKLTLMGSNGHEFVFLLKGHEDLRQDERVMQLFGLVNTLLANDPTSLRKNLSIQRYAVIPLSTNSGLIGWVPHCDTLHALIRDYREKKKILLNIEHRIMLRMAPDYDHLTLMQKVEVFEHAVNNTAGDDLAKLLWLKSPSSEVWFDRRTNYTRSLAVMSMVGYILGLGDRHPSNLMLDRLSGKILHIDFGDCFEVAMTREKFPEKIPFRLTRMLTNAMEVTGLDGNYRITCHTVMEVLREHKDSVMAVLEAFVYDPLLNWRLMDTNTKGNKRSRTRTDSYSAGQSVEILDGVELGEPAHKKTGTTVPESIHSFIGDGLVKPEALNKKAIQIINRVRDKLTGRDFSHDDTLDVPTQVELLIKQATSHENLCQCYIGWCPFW
PI3K δ, sequence (O00329 whole entry): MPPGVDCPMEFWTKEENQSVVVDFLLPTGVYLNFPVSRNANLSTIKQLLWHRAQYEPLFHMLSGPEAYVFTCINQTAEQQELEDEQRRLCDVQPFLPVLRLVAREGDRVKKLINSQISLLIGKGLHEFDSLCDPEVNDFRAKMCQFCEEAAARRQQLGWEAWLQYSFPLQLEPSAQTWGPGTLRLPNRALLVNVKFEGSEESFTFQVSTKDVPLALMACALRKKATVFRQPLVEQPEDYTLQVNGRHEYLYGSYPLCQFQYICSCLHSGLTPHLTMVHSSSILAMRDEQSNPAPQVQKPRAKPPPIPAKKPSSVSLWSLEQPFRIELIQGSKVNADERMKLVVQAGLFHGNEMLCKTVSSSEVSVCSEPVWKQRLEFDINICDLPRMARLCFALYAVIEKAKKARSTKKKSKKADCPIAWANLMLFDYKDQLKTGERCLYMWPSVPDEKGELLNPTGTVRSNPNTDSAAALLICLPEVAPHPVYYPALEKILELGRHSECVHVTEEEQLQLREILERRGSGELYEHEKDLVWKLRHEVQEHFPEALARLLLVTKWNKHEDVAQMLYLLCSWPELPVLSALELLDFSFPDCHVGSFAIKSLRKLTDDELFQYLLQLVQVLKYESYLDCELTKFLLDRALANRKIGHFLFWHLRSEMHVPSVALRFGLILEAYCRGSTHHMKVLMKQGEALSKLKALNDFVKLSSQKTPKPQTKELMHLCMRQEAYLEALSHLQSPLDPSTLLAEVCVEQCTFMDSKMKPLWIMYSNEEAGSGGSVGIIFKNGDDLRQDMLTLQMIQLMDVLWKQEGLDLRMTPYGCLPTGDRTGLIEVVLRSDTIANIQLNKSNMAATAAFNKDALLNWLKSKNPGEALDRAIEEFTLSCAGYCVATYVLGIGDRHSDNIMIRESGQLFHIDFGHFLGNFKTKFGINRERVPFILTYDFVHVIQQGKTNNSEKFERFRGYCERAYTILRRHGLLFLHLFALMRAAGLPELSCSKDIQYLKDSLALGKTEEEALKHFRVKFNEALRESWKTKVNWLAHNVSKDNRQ
PI3K δ, sequence (P27986 whole entry partner): as the sequence (P27986 whole entry partner) above
Experimental for PC3: For instance, an in vitro cellular proliferation assay can be performed to measure the metabolic activity of live cells. The assay is performed in a 96 well microtiter plate using Alamar Blue reduction. […] A compound disclosed herein is diluted in Tumor Cell Media and added in a 10 ul volume. […] A volume of 10 uL of Alamar Blue reagent is added to each well and plates are incubated for 3 hours at 37 C and 5% CO2.
Experimental for PI3K α: (§1) An exemplary system is PI 3-Kinase (human) HTRF™ Assay from Upstate. […] Briefly, the assay is a time resolved FRET assay that indirectly measures PIP3 product formed by the activity of a PI3-K. The kinase reaction is performed in a microtitre plate (e.g., a 384 well microtitre plate). The total reaction volume is approximately 20 ul per well. In the first step, each well receives 2 ul of test compound in 20% dimethylsulphoxide resulting in a 2% DMSO final concentration. […] The plate is sealed and incubated for 15 minutes at room temperature. […] The plate is sealed and incubated for 1 hour at room temperature. The reaction is stopped by adding 5 ul of Stop Solution per well and then 5 ul of Detection Mix is added per well. The plate is sealed, incubated for 1 hour at room temperature, and then read on an appropriate plate reader. Data is analyzed and IC50s are generated using GraphPad Prism 5.
Experimental for PI3K β: as §1
Experimental for PI3K γ: as §1
Experimental for PI3K δ: as §1

In the case of `Nc1ncnc2c1c(-c1cc3cccc(O)c3[nH]1)nn2C1CCN(C(=O)C2CC2)CC1` [Compound 41], the IC50 at mTOR (Table 2) was under 10 nM; at PI3K α (Table 2), over 500 nM; on PI3K β (Table 2), over 500 nM; on PI3K γ, 25 to 50 nM; at PI3K δ (Table 2), over 500 nM.
Turning to `Nc1ncnc2c1c(-c1cc3cc(O)ccc3[nH]1)nn2C1CC(N2CCOCC2)C1` (centres unmarked) [Compound 49], the IC50 on mTOR (Table 2) is under 10 nM; on PI3K α, over 500 nM; on PI3K β (Table 2), over 500 nM; on PI3K γ (Table 2), 100 to 500 nM; at PI3K δ it was 100 to 500 nM.
For the compound `CC(C)n1nc(-c2cc3cccc(Cl)c3[nH]2)c2c(N)ncnc21` [Compound 50], the IC50 on mTOR (Table 2) is under 50 nM; on PI3K α (Table 2), over 500 nM; at PI3K β (Table 2), over 500 nM; on PI3K γ (Table 2), 100 to 500 nM; at PI3K δ, 100 to 500 nM.
Turning to `Nc1ncnc2c1c(-c1cc3cccc(Cl)c3[nH]1)nn2C1CCOCC1` [Compound 51], the IC50 at mTOR (Table 2) was under 50 nM; on PI3K α, over 500 nM; at PI3K β (Table 2) it was over 500 nM; on PI3K γ (Table 2), 100 to 500 nM; at PI3K δ (Table 2), 100 to 500 nM.
Regarding `CN1CCN(C2CC(n3nc(-c4cc5cc(O)ccc5[nH]4)c4c(N)ncnc43)C2)CC1` (centres unmarked) [Compound 52], the IC50 was under 500 nM at mTOR (Table 2); over 500 nM at PI3K α; over 500 nM at PI3K β (Table 2); over 500 nM at PI3K γ; 100 to 500 nM at PI3K δ.
`COc1ccc(Cl)c2cc(-c3nn(C4CCOCC4)c4ncnc(N)c34)[nH]c12` [Compound 61]: the IC50 on mTOR (Table 2) is under 25 nM; at PI3K α (Table 2), over 500 nM; at PI3K β (Table 2), over 500 nM; at PI3K γ (Table 2), over 500 nM; on PI3K δ, over 500 nM.
Regarding `Nc1ncnc2c1c(-c1cc3cccc(O)c3[nH]1)nn2C1CCOCC1` [Compound 62], the IC50 at mTOR (Table 2) is under 5 nM; at PI3K α (Table 2), over 500 nM; at PI3K β (Table 2) it was over 500 nM; on PI3K γ (Table 2), over 500 nM; on PI3K δ (Table 2), 50 to 100 nM.
Consider `COc1cccc2cc(-c3nn(C4CCOCC4)c4ncnc(N)c34)[nH]c12` [Compound 63], for which the half-maximal inhibitory concentration (IC50) on mTOR (Table 2) was under 5 nM; on PI3K α it was 100 to 500 nM; at PI3K β (Table 2), over 500 nM; at PI3K γ (Table 2), 10 to 25 nM; at PI3K δ it was 10 to 25 nM.
On to `CC(C)N1CCC(n2nc(-c3cc4cccc(O)c4[nH]3)c3c(N)ncnc32)CC1` [Compound 64], for which the IC50 at mTOR (Table 2) was under 25 nM; at PI3K α (Table 2), over 500 nM; on PI3K β (Table 2), over 500 nM; at PI3K γ (Table 2), 100 to 500 nM; on PI3K δ (Table 2) it was 100 to 500 nM.
With `CC(=O)N1CCC(n2nc(-c3cc4ccc(O)cc4[nH]3)c3c(N)ncnc32)CC1` [Compound 65], the IC50 at mTOR (Table 2) was under 10 nM; at PI3K α, 25 to 50 nM; on PI3K β (Table 2) it was over 500 nM; at PI3K γ (Table 2), 10 to 25 nM; at PI3K δ it was 10 to 25 nM.
For `COc1cccc2cc(-c3nn(C4CCN(C(=O)C5CC5)CC4)c4ncnc(N)c34)[nH]c12` [Compound 66], the concentration for half-maximal inhibition (IC50) on mTOR (Table 2), on PI3K α (Table 2), on PI3K β (Table 2), on PI3K γ (Table 2) and on PI3K δ was over 500 nM throughout.
Consider `COc1cc(Cl)c2[nH]c(-c3nn(C4CCOCC4)c4ncnc(N)c34)cc2c1` [Compound 67], for which the IC50 at mTOR (Table 2), on PI3K α (Table 2), at PI3K β (Table 2), at PI3K γ (Table 2) and at PI3K δ (Table 2) was over 500 nM throughout.
With `Nc1ncnc2c1c(-c1cc3cc(O)cc(Cl)c3[nH]1)nn2C1CCOCC1` [Compound 68], the IC50 on mTOR (Table 2) is under 5 nM; at PI3K α (Table 2), 100 to 500 nM; on PI3K β (Table 2), over 500 nM; at PI3K γ (Table 2), 25 to 50 nM; at PI3K δ, 10 to 25 nM.
Regarding `CC(=O)N1CCC(n2nc(-c3cc4c(Cl)ccc(O)c4[nH]3)c3c(N)ncnc32)CC1` [Compound 69], the IC50 was under 5 nM at mTOR (Table 2); over 500 nM on PI3K α (Table 2); over 500 nM on PI3K β (Table 2); over 500 nM at PI3K γ (Table 2); 100 to 500 nM on PI3K δ.
With `CC(=O)N1CCC(n2nc(-c3cc4cc(O)cc(Cl)c4[nH]3)c3c(N)ncnc32)CC1` [Compound 70], the half-maximal inhibitory concentration (IC50) was under 5 nM at mTOR (Table 2); 100 to 500 nM on PI3K α (Table 2); over 500 nM on PI3K β (Table 2); 50 to 100 nM at PI3K γ (Table 2); 10 to 25 nM on PI3K δ (Table 2).
On to `CC(C)N1CCC(n2nc(-c3cc4c(Cl)ccc(O)c4[nH]3)c3c(N)ncnc32)CC1` [Compound 71], for which the IC50 at mTOR (Table 2) is under 100 nM; on PI3K α (Table 2) it was over 500 nM; on PI3K β (Table 2), over 500 nM; on PI3K γ (Table 2), over 500 nM; on PI3K δ it was over 500 nM.
As for `CC(=O)Nc1nc2ccc(-c3ccc4oc(N)nc4c3)cc2s1` [Compound 231], the IC50 at mTOR was under 10000 nM; at PI3K α it was under 100 nM; on PI3K β, under 1000 nM; at PI3K γ, under 100 nM; on PI3K δ, under 100 nM.
`O=C(c1cnc2ccc(-c3cnc(Cl)c(NS(=O)(=O)c4ccccc4)c3)cn12)N1CCOCC1` [Compound 451] came in with an IC50 in the test on PC3 of under 1000 nM.
`O=C(c1cnc2ccc(-c3cnc(Cl)c(NS(=O)(=O)c4ccccc4F)c3)cn12)N1CCOCC1` [Compound 452] registered a half-maximal inhibitory concentration (IC50) in the test with PC3 of under 10000 nM.
Regarding `O=C(c1cnc2ccc(-c3cnc(Cl)c(NS(=O)(=O)c4ccc(F)cc4)c3)cn12)N1CCOCC1` [Compound 457], the IC50 with PC3 is under 1000 nM.
On the same count and under the same terms, next, `O=C(c1cnc2ccc(-c3cnc(Cl)c(NS(=O)(=O)c4cccc(F)c4)c3)cn12)N1CCOCC1` [Compound 458]: under 1000 nM; `COc1ncc(-c2ccc3ncc(C(=O)N4CCOCC4)n3c2)cc1NS(=O)(=O)c1cccnc1` [Compound 462]: under 1000 nM; `CO[C@@H]1CCN(C(=O)c2cnc3ccc(-c4ccc5oc(N)nc5c4)cn23)C1` [Compound 464]: under 10000 nM.
For `COC1CN(C(=O)c2cnc3ccc(-c4ccc5oc(N)nc5c4)cn23)C1` [Compound 467], the IC50 with PC3 is under 1000 nM.
On to `Nc1nc2cc(-c3ccc4ncc(C(=O)N5CC(N6CC[C@H](O)C6)C5)n4c3)ccc2o1` [Compound 469], for which the half-inhibitory concentration (IC50) in the test on PC3 was under 10000 nM.
For the compound `Nc1nc2cc(-c3ccc4ncc(C(=O)N5CC(N6CC[C@@H](O)C6)C5)n4c3)ccc2o1` [Compound 470], the IC50 with PC3 and on PI3K δ (in vitro) was under 10000 nM in each case.
On to `Nc1nc2cc(-c3ccc4ncc(C(=O)N5CCC(F)(F)C5)n4c3)ccc2o1` [Compound 471], for which, in the test on PC3, the IC50 was under 10000 nM.
In turn, `CN(C(=O)c1cnc2ccc(-c3ccc4oc(N)nc4c3)cn12)C1CCOCC1` [Compound 472] registered an IC50 in the test with PC3 of under 10000 nM.
The same measure, in the same setting: next, `Nc1nc2cc(-c3ccc4ncc(C(=O)N5CC(F)(F)C5)n4c3)ccc2o1` [Compound 473]: under 1000 nM.
On the same count and under the same terms, the same measure for `Nc1nc2cc(-c3ccc4ncc(C(=O)N5CC[C@H](n6cccn6)C5)n4c3)ccc2o1` [Compound 478]: under 1000 nM; for `Nc1nc2cc(-c3ccc4ncc(C(=O)N5C6CCC5COC6)n4c3)ccc2o1` [Compound 480]: under 1000 nM; for `C[C@H]1COCCN1C(=O)c1cnc2ccc(-c3ccc4oc(N)nc4c3)cn12` [Compound 483]: under 10000 nM.
For the compound `C[C@@H]1CN(C2CN(C(=O)c3cnc4ccc(-c5ccc6oc(N)nc6c5)cn34)C2)CCN1C` [Compound 508], the IC50 in the test with PC3 was under 1000 nM.
Same read-out and setting: next, `C[C@H]1CN(C2CN(C(=O)c3cnc4ccc(-c5ccc6oc(N)nc6c5)cn34)C2)CCN1` [Compound 510]: under 10000 nM.
With `C[C@@H]1CN(C2CN(C(=O)c3cnc4ccc(-c5ccc6oc(N)nc6c5)cn34)C2)CCN1` [Compound 511], the IC50 in the test on PC3 and on PI3K γ (in vitro) was under 10000 nM in each case.
`CC1(C)CN(C2CN(C(=O)c3cnc4ccc(-c5ccc6oc(N)nc6c5)cn34)C2)CCN1` [Compound 515] gave an IC50 in the test on PC3 of under 1000 nM.
For `COc1ncc(-c2ccc3ncn(C4CCN(C(C)C)CC4)c(=O)c3c2)cc1NS(=O)(=O)c1ccccc1` [Compound 522], the concentration for half-maximal inhibition (IC50) in the test with PC3 is under 1000 nM.
Still for that read-out and setting: next, `CC(C)N1CCC(n2cnc3ccc(-c4cnc(Cl)c(NS(C)(=O)=O)c4)cc3c2=O)CC1` [Compound 523]: under 10000 nM; `COc1ncc(-c2ccc3ncn(C4CCN(C)CC4)c(=O)c3c2)cc1NS(=O)(=O)c1ccccc1` [Compound 524]: under 1000 nM.
As to `CN1CCC(n2cnc3ccc(-c4cnc(Cl)c(NS(C)(=O)=O)c4)cc3c2=O)CC1` [Compound 526], the IC50 with PC3 was under 10000 nM.
As for `Nc1nc2cc(-c3ccc4ncc(N5C6CCC5COC6)nc4n3)ccc2o1` [Compound 570], the IC50 was over 10000 nM at mTOR (Table 4); under 100 nM at PI3K α (Table 4); over 10000 nM on PI3K β (Table 4); under 100 nM on PI3K γ (Table 4); over 10000 nM on PI3K δ.
Take `CN1CC2CN(c3cnc4ccc(-c5ccc6oc(N)nc6c5)nc4n3)CC2C1` (centres unmarked) [Compound 629]: the IC50 on mTOR (Table 4) is over 10000 nM; on PI3K α (Table 4) it was under 100 nM; on PI3K β (Table 4), under 1000 nM; at PI3K γ (Table 4) it was under 10000 nM; on PI3K δ (Table 4), under 1000 nM.
Take `CN1CC2CN(c3cnc4ccc(-c5ccc6oc(N)nc6c5)nc4c3)CC2C1` (centres unmarked) [Compound 630]: the IC50 at mTOR (Table 4) was over 10000 nM; at PI3K α (Table 4), under 100 nM; at PI3K β (Table 4), under 1000 nM; on PI3K γ (Table 4) it was under 1000 nM; on PI3K δ (Table 4), under 1000 nM.
